In patent publication US9334280B2, “Synthetic rigidin analogues as anticancer agents, salts, solvates and prodrugs thereof, and method of producing same” (New Mexico Technical Research Foundation, priority 2012, dated 2016):

How the values were obtained:
[1] = system: MES-SA uterine sarcoma cells; test: MTT antiproliferative assay, MES-SA; assay type: cell-based; conditions: Homo sapiens, Table 3, parental drug-responsive cell line, read-out: GI50 in vitro Values, MES-SA
Method: Human T-cell leukemia cell line Jurkat (ATCC TIB-152, E6-1 clone) was cultured in RPMI-1640 (Invitrogen) supplemented with 10% FBS (Invitrogen), 100 mg/L penicillin G, 100 mg/L streptomycin, 1.0 mM sodium pyruvate, 1.5 g/L sodium bicarbonate, and 4.5 g/L glucose (all from Sigma). Human cervical cancer cell line HeLa (ATCC S3) was cultured in DMEM (Invitrogen) supplemented with 10% FBS, 100 mg/L penicillin G, and 100 mg/L streptomycin. MCF-7 (human mammary carcinoma) cells were cultured in DMEM supplemented with 1.0 mM sodium pyruvate, 1% GlutaMax™-1 (Invitrogen), 100 μg/mL penicillin, 100 μg/mL streptomycin, and 10% FBS. Human uterine sarcoma MES-SA and MES-SA/Dx5 cells were cultured in RPMI-1640 medium supplemented with 10% FBS, 100 mg/L penicillin G and 100 mg/L streptomycin. All cells were incubated at 37° C. in a humidified atmosphere with 5% CO2. […]
To evaluate antiproliferative properties of the compounds of Formula I, mitochondrial dehydrogenase activities were measured using the MTT assay. […] Media was removed and the resulting formazan crystals were re-solubilized in 100 microL of DMSO and the optical density (OD) was measured using a Thermomax Molecular Device plate reader at a wavelength of 490 nm. […]
The cells of such tumors are referred to as multidrug resistant (MDR). Thus, we assessed the compounds of Formula I for antiproliferative activity in an MDR cancer cell line. […]

[2] = system: HeLa cells; test: Flow cytometric cell cycle analysis (Vybrant Orange); assay type: cell-based, human; conditions: 24 h
Method: To assess the effects of the analogues on the cell cycle, cell cycle analysis was performed. 70-80% confluent HeLa cells were trypsinized and seeded at an initial density of 2×10^5 cell per well into 6 well plates in DMEM supplemented with 10% FBS, 100 mg/L penicillin G and 100 mg/L streptomycin. The cells were allowed to adhere overnight and before treatment with compounds of Formula I at concentrations ranging from 0.1 to 10 microM. After 24 hrs, the cells were washed 3× with DMEM, trypsinized, pelleted, and re-suspended in 200 microL of culture medium containing 10 microM (2 microL/mL) vybrant orange dye. The samples in the labeling solution were transferred into Falcon tubes and incubated in a water bath for 30 mins at 37° C. The samples were then analyzed using a Becton Dickinson FACscan flow cytometer with CellQuest software. A 488 nm laser was utilized using parameters that can be found in Appendix B; 10,000 events were collected for analysis. Cells treated with 0.1% DMSO were used as a negative control and cells treated with colchicine were used as a positive control.
In further anticancer evaluation of compounds of Formula I cell cycle analysis was performed using the cell permeable DNA binding dye Vybrant Orange. In a normal population, cells are distributed among the three major phases of the cell cycle, G0/G1 in which there is one set of paired chromosomes per cell (2n), followed by the S or synthesis phase in which DNA is synthesized in preparation for division (there is a variable amount of DNA present during this phase) and finally G2/M phase in which the chromosomes of each cell have now been duplicated (4n). This DNA content can be measured using fluorescent DNA selective probes such as Vybrant Orange that produce signals that are proportional to DNA mass per cell. This dye interacts with double stranded DNA (dsDNA) in living cells and becomes fluorescent upon binding and thus can be used to track DNA content as cells progress through the various phases of the cell cycle using flow cytometry. Cell cycle analysis was performed on HeLa cells using Rig8 at various concentrations above and below the respective GI50. Since colchicine is a known antimitotic drug, it was utilized as a positive control, while HeLa cells treated with 0.1% DMSO were used as a negative control. FIG. 6 illustrates the results of this analysis using Rig 8 on HeLa cells.

[3] = system: UM-SCC10B head and neck metastases cells; test: MTT antiproliferative assay, UM-SCC10B; assay type: cell-based; conditions: Table 1A, 48 h, read-out: Concentration required to reduce the viability of cells by 50%, UM-SCC10B
Method: To evaluate antiproliferative properties of the compounds of Formula I, mitochondrial dehydrogenase activities were measured using the MTT assay. The cell lines were prepared by trypsinizing and seeding […] cells per well into microplates. All compounds were reconstituted in dimethyl sulfoxide (DMSO) at a concentration of either 100 mM or 25 mM prior to treatment. The cells were grown for 24 hrs before treatment at concentrations ranging from 0.004 to 100 microM and incubated for 48 hrs in 200 microL media. 20 microL of MTT reagent in serum free medium (5 mg/mL) was added to each well and incubated further for 2 hrs. Media was removed and the resulting formazan crystals were re-solubilized in 100 microL of DMSO and the optical density (OD) was measured using a Thermomax Molecular Device plate reader at a wavelength of 490 nm. The experiments were performed in quadruplicate and repeated at least twice for each compound per cell line. Cells treated with 0.1% DMSO were used as a negative control, while phenyl arsine oxide (PAO) was used as a positive killing control.

## O=C(c1ccccc1)c1[nH]c2[nH]cnc(=O)c2c1-c1cc(Br)cc(Br)c1 [Rig8, 6-Benzoyl-5-(3,5-dibromophenyl)-1H-pyrrolo[2,3-d]pyrimidin-4(7H)-one]
[1]
  GI50: 81 ± 6 nM
[2]; 0.1 μM
  % Relative DNA Content, G0/G1: 51.5 ± 4.3%
  % Relative DNA Content, G2/M: 36.6 ± 4.6%
  % Relative DNA Content, S: 14.1 ± 3.9%
[2]; 1 μM
  % Relative DNA Content, G0/G1: 12.7 ± 2.2%
  % Relative DNA Content, G2/M: 73.4 ± 5.3%
  % Relative DNA Content, S: 9.7 ± 2.4%
[2]; 10 μM
  % Relative DNA Content, G0/G1: 5.6 ± 2.2%
  % Relative DNA Content, G2/M: 85.9 ± 2.1%
  % Relative DNA Content, S: 5.3 ± 2.4%
[2]; 0.1-10 μM
  cell cycle arrest (in words): dose-dependent cell cycle arrest in the G2/M phase
[3]
  IC50: 100 nM
